Patent US11096946B2, “Use of a PPAR-δ agonist for reducing loss of muscle strength, muscle mass, or type I muscle fibers in an immobilized limb” (vTv Therapeutics LLC, priority 2013, dated 2021)
Where “and” joins values, the source holds several entries; their conditions need not be identical. Identical values can stand only once. Counter-ions that a name gives are not always drawn.

Tested on: human subjects
Assay: Repeated measures knee extension strength test (Muscle Strength Test) during and after limb immobilization, placebo-controlled study
Assay type: in vivo
Settings: for Muscle strength, knee extension, Baseline Mean: baseline pre-dose; for Muscle strength, knee extension, LSMean change from baseline, Day 14: Day 14 (brace off); for Muscle strength, knee extension, LSMean change from baseline, Day 29: P 0.2 vs placebo; for Mean Difference Compound 1 vs Placebo, LSMean change in muscle strength, Day 29: P 0.2
Excerpt: A protocol for the experimental evaluation of the impact of a PPARδ agonist on muscle atrophy during and following the end of limb immobilization is provided below. In the protocol, reference to Compound 1 refers to (E)-[4-[3-(4-Fluorophenyl)-3-[4-[3-(morpholin-4-yl)propynyl]phenyl]allyloxy]-2-methyl-phenoxy]acetic acid sodium salt.
A randomized, investigator and subject blind, sponsor open, placebo-controlled study evaluating the possible impact of Compound 1 on the recovery of muscle atrophy from limb immobilization is described. Subjects will be leg immobilized using a knee brace (30 degrees flexion on the left leg to allow driving) and will be provided with walking crutches such that there is no weight bearing on the immobilized leg. Subjects will be enrolled and randomized to receive Compound 1 or placebo (both referenced as Study Drug in this protocol). The study consists of five periods termed SCR (screening period, Day −35 to −3), BL (baseline period: Day −1 to Day 1 [am]), IMM (limb immobilization and treatment with study drug, Day 1 [pm] to Day 14), TRE (treatment with study drug without limb immobilization, Day 15 to Day 29) and REC (no treatment recovery period, Day 29 to Day 42). There will be six testing days during the study: Day 1 (baseline), Day 14 (brace off day), Day 16 (48 hours after brace off), Day 21, Day 29 (last dose) and Day 42 (final study visit). On each testing day, subjects will undergo the combination of several testing procedures in sequential order as listed: 1) Morning activity plus approximately 500-step walk (when domiciled at Clinical Research Unit [CRU]); 2) Blood sampling; 3) Standardized breakfast (Study Drug administration will be immediately before the breakfast except for Day 42); 4) Muscle biopsy; 5) Leg muscle strength tests (MST) and modified physical performance test (PPT); and 6) Magnetic resonance imaging (MRI) of the thigh to evaluate thigh muscle volume/cross-section area (CSA).
Two treatment groups in this study: • a) Treatment group A: Treated with 100 mg of Compound 1 twice daily from Day 1 to Day 29. • b) Treatment group B: Treated with placebo twice daily from Day 1 to Day 29.
The maximal amount of weight that the participant is able to lift for one repetition (1-RM) will be measured on a Hoist multi-station weight machine for the following exercises: leg press, knee extension, knee flexion, and bench press. Isokinetic (Cybex) testing of knee extension/flexion will be done to assess deficiencies in rapid strength recruitment. Subjects will be seated on the testing device and strapped in to prevent the pelvis from sliding forward. The movement arm will be adjusted to the subject's leg length and the weight of the leg will be determined. Isokinetic testing of the knee extensors and flexors will be performed at 0°/s, 60°/s and 180°/s. Four to five repetitions at each mode will be performed with the highest two values used for data analysis. Subjects will be familiarized with these procedures during the screening visit.
An experimental study was conducted to evaluate the impact of Compound 1, a PPARδ agonist, on muscle atrophy during and following the end of limb immobilization in human subjects. Except where specifically noted otherwise below, all methods were conducted as described in the protocol above.
Methods were generally conducted as described in the protocol. The study was designed as a double-blind, randomized, placebo-controlled, parallel study in healthy male subjects. A total of N=24 subjects were randomized. The number of randomized subjects is lower than originally planned. A total of N=21 subjects had data available for statistical analysis.
Multiple imputation statistical methods were used to preserve the intent-to-treat (ITT) principle while coping with invalid and missing data.
Primary analysis was executed as defined in the study protocol and the statistical analysis plan (see protocol described above). […]

Compound: Cc1cc(OC/C=C(/c2ccc(F)cc2)c2ccc(C#CCN3CCOCC3)cc2)ccc1OCC(=O)O [Compound 1, (E)-[4-[3-(4-Fluorophenyl)-3-[4-[3-(morpholin-4-yl)propynyl]phenyl]allyloxy]-2-methyl-phenoxy]acetic acid sodium salt]
- Change in muscle strength compared to baseline, difference to placebo (14 days following the end of immobilization (i.e., day 28)): no longer significantly different
- Muscle strength, knee extension, Baseline Mean (Table 1 primary analysis, multiple imputation for missing and invalid data, n = 10, healthy males, raw data in lbs): 195
- Muscle strength, knee extension, LSMean change from baseline, Day 14 (Table 1 primary analysis, multiple imputation, 100 mg twice daily, n = 10, P 0.012 vs placebo): −2.9
- Mean Difference Compound 1 vs Placebo, LSMean change in muscle strength, Day 14 (Table 1 primary analysis, multiple imputation, P 0.012): 36
- Muscle strength, knee extension, LSMean change from baseline, Day 21 (primary) (Table 1 primary analysis, multiple imputation, 100 mg twice daily, n = 10, P 0.004 vs placebo): 36.8
- Mean Difference Compound 1 vs Placebo, LSMean change in muscle strength, Day 21 (primary) (Table 1 primary analysis, multiple imputation, P 0.004): 36.5
- Muscle strength, knee extension, LSMean change from baseline, Day 29 (Table 1 primary analysis, multiple imputation, 100 mg twice daily, n = 10): 30.4
- Mean Difference Compound 1 vs Placebo, LSMean change in muscle strength, Day 29 (Table 1 primary analysis, multiple imputation): 21.9
- Mean Difference Compound 1 vs Placebo, Baseline mean muscle strength (Table 1 primary analysis, multiple imputation, P 0.3): 19
- Muscle strength, knee extension, Baseline Mean (Table 2 supportive analysis, no imputation, excluding protocol violators, n = 9): 191 lbs
- Muscle strength, knee extension, LSMean change from baseline, Day 14 (Table 2 supportive analysis, no imputation, 100 mg twice daily, n = 9, P 0.04 vs placebo): −1.9 lbs
- Mean Difference Compound 1 vs Placebo, LSMean change in muscle strength, Day 14 (Table 2 supportive analysis, no imputation, P 0.04): 36.3 lbs
- Muscle strength, knee extension, LSMean change from baseline, Day 21 (primary) (Table 2 supportive analysis, no imputation, 100 mg twice daily, n = 9, P 0.048 vs placebo): 31.5 lbs
- Mean Difference Compound 1 vs Placebo, LSMean change in muscle strength, Day 21 (primary) (Table 2 supportive analysis, no imputation, P 0.048): 31.3 lbs
- Muscle strength, knee extension, LSMean change from baseline, Day 29 (Table 2 supportive analysis, no imputation, 100 mg twice daily, n = 9): 32.5 lbs
- Mean Difference Compound 1 vs Placebo, LSMean change in muscle strength, Day 29 (Table 2 supportive analysis, no imputation): 19.4 lbs
- Mean Difference Compound 1 vs Placebo, Baseline mean muscle strength (Table 2 supportive analysis, no imputation, P 0.4): 23 lbs
- Primary muscle strength variable of analysis vs placebo (human subjects, N=21 with data available): statistically significant superiority over placebo
- Rate of loss of muscle strength during immobilization (human subjects, compared to their baseline measurements): reduced to almost zero
- Mean change from baseline to day 21 in muscle strength relative to placebo (human subjects, day 21): showed superiority
- Muscle atrophy during immobilization (rate of loss of muscle strength relative to placebo) (human subjects, during immobilization): effective in reducing muscle atrophy during immobilization
- Atrophy following immobilization (rate of return of muscle strength to baseline relative to placebo) (human subjects, following immobilization): reducing atrophy following immobilization
- Maximum muscle strength on the knee extension (KE), raw value, Day 1 (individual Treated subjects A-I, Day 1 baseline, pre-dose, sodium salt): 220.5 Lbs and 145.5 Lbs and 215.5 Lbs and 265.5 Lbs and 123 Lbs and 260.5 Lbs and 168 Lbs and 163 Lbs and 160.5 Lbs
- Maximum muscle strength on the knee extension (KE), raw value, Day 14 (individual Treated subjects A-I, Day 14, day brace is removed, 100 mg twice daily, sodium salt): 200.5 Lbs and 195 Lbs and 163 Lbs and 255.5 Lbs and 120.5 Lbs and 225.5 Lbs and 158 Lbs and 185.5 Lbs and 170.5 Lbs
- Maximum muscle strength on the knee extension (KE), raw value, Day 21 (individual Treated subjects A-I, Day 21, primary endpoint, 100 mg twice daily, sodium salt): 270.5 Lbs (3×) and 225.5 Lbs and 213 Lbs and 158 Lbs and 183 Lbs and 205.5 Lbs
- Maximum muscle strength on the knee extension (KE), raw value, Day 29 (individual Treated subjects A-I, Day 29, final assessment during treatment period, sodium salt): 270.5 Lbs (2×) and 235.5 Lbs and 225.5 Lbs and 213 Lbs and 150.5 Lbs and 183 Lbs and 230.5 Lbs
- Maximum muscle strength on the knee extension (KE), raw value, Day 42 (individual Treated subjects A-I, Day 42, safety follow-up after end of treatment, sodium salt): 270.5 Lbs (3×) and 265.5 Lbs and 238 Lbs and 158 Lbs and 183 Lbs and 220.5 Lbs
